In patent US20230382871A1, “CSF1R KINASE INHIBITOR AND USE THEREOF” (SHANGHAI INSTITUTE OF MATERIA MEDICA, CHINESE ACADEMY OF …, priority 2020, published 2023):

System: BMDM cells
Experiment: CCK8 cell proliferation inhibition assay on CSF1-stimulated bone marrow-derived macrophages
Assay type: cell-based, mice (BALB/c)
Details: Mus musculus, 72 h exposure
Protocol: Mice (BALB/c) were subjected to euthanasia and then immersed in 75% alcohol for 3-5 min. The tibias and femurs of the mice were removed with ophthalmic forceps and ophthalmic clips on an ultraclean table. The tibial and femoral joints were cut off and bone marrow cells were washed out with a sterile buffer. Bone marrow cells were filtered with a 70 µm nylon membrane. The filtrate was centrifuged and the supernatant was discarded. An erythrocyte lysate was added to the pellets, which were allowed to incubate for 3-4 min. Then, a sterile buffer was added to stop the lysis reaction. The reactant was centrifuged and the supernatant was discarded, thereby yielding bone marrow cell pellets. The cells were cultured in 1640 medium (supplemented with FBS and 10 ng/mL of CSF1) for 5 to 7 days and identified as macrophages by flow cytometry. CCK8 cell counting kits were used in this assay. Bone marrow-derived macrophages, after induction by CSF1 for 5 to 7 days, were seeded into 96-well culture plates and allowed to incubate overnight. Then, the cells were exposed to compounds at various concentrations for 72 h. A blank control group was set. 10 μL of CCK8 reagent was added to each well and the places were placed in an incubator for 4 to 12 h. The plates were read with a microplate reader at a wavelength of 450 nm. […] Each experiment was independently repeated for three times.

Cc1cc(NC(=O)c2cccc3cc(-c4cccc5[nH]nc(N)c45)ccc23)ccc1F [Compound I]
IC50: 93 nM
